Assay results reported in patent US9757375B2, “Compounds that inhibit human DNA ligases and methods of treating cancer” (University of Maryland, Baltimore, priority 2007, dated 2017).
Like-named read-outs stand apart in the source and are kept apart here. Marks after values point to notes of the source that are not given here.

Assays:
[1] = test system: Human DNA ligases I, III and IV and T4 DNA ligase; assay: Step 3 of the ligation reaction: ligation of preadenylated nick by non-adenylated ligase; type: biochemical; settings: for Mechanism: ligation step inhibited (3rd step): Table 5A
Procedure: To analyze step 3 of the ligation reaction, an adenylated labeled version of the 18-mer was prepared as described (24). The DNA substrate containing a preadenylated nick (0.5 pmol) and hLigI (0.05 pmol), hLigIIIβ (0.05 pmol), hLigIV/XRCC4 (0.1 pmol), or T4 DNA ligase (0.05 pmol) were incubated in ligation buffer without ATP, either in the presence or absence of the ligase inhibitors (100 μmol/L). Reactions were stopped by the addition of an equal volume of gel loading dye (95% formamide, 0.05% bromophenol blue, and 0.05% xylene cyanol). After heating at 95° C. for 5 min, DNA was separated by denaturing polyacrylamide gel electrophoresis. Labeled oligonucleotides were detected and quantitated in the dried gel by phosphorImager analysis (Molecular Dynamics).
Since the final two steps of the ligation reaction involve interactions with DNA, we examined the effects of the ligase inhibitors on the second (FIG. 3B) (The labeled ligase-adenylate form of human DNA ligases I, III and IV and T4 DNA ligase were incubated with a linear DNA substrate containing a single non-ligatable nick in the absence or presence of compounds 67, 82 and 189 (100 μM). After separation by denaturing gel electrophoresis, the labeled DNA-AMP complex was detected by phosphorimaging (26)) and third steps (FIG. 3C) of the ligation reaction using established assays (25,26) (Non-adenylated human DNA ligases I, III and IV and T4 DNA ligase were incubated with labeled DNA-AMP in the absence or presence of compounds 67, 82 and 189 (100 μM). After separation by denaturing gel electrophoresis, labeled ligated DNA was detected by phosphorimaging (25)).

MCF10A cells [2] = assay: Colony forming (survival) assay; type: cell-based, human; settings: colonies after two weeks; for effect on MMS cytotoxicity: MMS 50 μM
Procedure: (§1) For survival assays, cells were plated in 6 well plates and grown either in the absence or presence of ligase inhibitors. Where indicated, either MMS (0-50 μM) was added to the medium or the cells were irradiated in a Cs-137 irradiator (0-2.5 Gy). After two weeks, colonies were stained with crystal violet (Sigma) and then counted.
(§2) To confirm that the DNA ligase inhibitors directly kill cells and potentiate cell killing by DNA damaging agents, we performed colony forming assays.
(§3) Different concentrations of Compound 184 were added to asynchronous subconfluent populations of HCT116, MCF7 and MCF10A cells. Colonies were counted after two weeks. (FIG. 6A).
(§4) Different concentrations of Compound 151 were added to asynchronous subconfluent populations of HCT116 and MCF10A cells in the absence or presence of MMS (50 μM). Colonies were counted after two weeks. (FIG. 6B).
(§5) Different concentrations of Compound 189 were added to asynchronous subconfluent populations of HCT116 and MCF10A cells. After 1 hour, cultures were irradiated with 2 gray of ionizing radiation. Colonies were counted after two weeks. (FIG. 6C).
(§6) Different concentrations of Compound 67 were added to asynchronous subconfluent populations of HCT116, MCF7 and MCF10A cells. After 1 hour, cultures were irradiated with 2 gray of ionizing radiation. Different concentrations of Compound 67 were added to asynchronous subconfluent populations of HCT116 and MCF10A cells in the absence or presence of MMS (50 μM). Colonies were counted after two weeks. (FIG. 6D).

HCT116 cells [3] = assay: Colony forming (survival) assay; type: cell-based, human; settings: for potentiation of killing by ionizing radiation: HCT116, 2 gray
Procedure: as §1, §2, §3, §4, §5, §6

HCT116 cells [4] = assay: Screen for potentiation of DNA damaging agents (MMS, camptothecin, cis-platinum, 3 aminobenzamide, ionizing radiation); type: cell-based, human; settings: for IC50 ratios of non- and 3-AB treated cells HCT116: compound alone vs combination with 3-AB (2 mM); for IC50 ratios of non- and 3-AB treated cells HCT116 / MMS: Ratios of IC50 HCT116: 1 = no sensitization; for MMS: Ratios of IC50 HCT116: compound alone vs combination with MMS (100 μM)
From the text: The 192 human DNA ligase inhibitors were screened in parallel for effects on proliferation and the ability to potentiate the effects of several DNA damaging agents using two cell human lines, a colon cancer line HCT116 and a normal breast epithelial cell line MCF10A using a Biomek FX Laboratory Automation Workstation as described (23). The DNA damaging agents used, methyl methanesulfonate (MMS), camptothecin, cis-platinum, 3 aminobenzamide and ionizing radiation, are representatives of classes of agents used to treat cancer. Briefly, HCT116 and MCF10A cells were plated in 96 well plates such that the cultures were about 80% confluent after 5 days incubation. Compounds were added to the cultures at either 15 μM or 50 μM 1 day after plating. After incubation for 3 days, cell lysed in a solution containing 1.2% Igepal CA-630 and SYBR green that stains DNA (1:1000, Molecular Probes, Eugene, Oreg.). Subsequently, fluorescence was measured per well. The studies with DNA damaging agents were performed as follows. […] For ionizing radiation, cells were pre-incubated with the compounds at 50 μM for 1 hour prior to exposure to 2 gray of ionizing radiation. Cultures were incubated for 3 days and then treated as above.

MCF10A cells [5] = assay: MTT cell growth assay; type: cell-based, human; settings: for IC50: Homo sapiens, MCF-10A
How it was run: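 Seeded at 300 cells/well and allowed to adhere overnight, then serial compound dilutions in medium added for 5 days. MTT added for a further 4 h, formazan dissolved in isopropanol, and absorbance read at 560 nm.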

[6] = cell growth, compound alone, read-out: IC50 (μM) MCF10A
[7] = sections 'high concentrations (~50 μM)' and 'active in vitro that decreased cell growth', same figures given in μM elsewhere in Table 6, read-out: IC50 MCF10A (head without unit)

SMILES	Mechanism: ligation step inhibited (3rd step) [1] [rd step]	effect on MMS cytotoxicity (MCF10A cells [2])	MMS: Ratios of IC50 HCT116 (HCT116 cells [4])	IC50 (MCF10A cells [5]; [6]) [µM]	IC50 (MCF10A cells [5]; [7]) [µM]	other results
Cc1oc(C(=O)O)cc1CSCc1cc(C(=O)O)c(C)o1 [Compound 197]	3					
Nc1nc(S)nc(O)c1/N=C/c1ccccc1 [Compound 189]	3	no significant effect				potentiation of killing by ionizing radiation (HCT116 cells [3]; colonies after two weeks): markedly potentiates
CS(=O)(=O)NNC(=O)C(=O)NNc1ccccc1 [Compound 184]						cell killing (colony formation) (MCF10A cells [2]; compound alone, FIG. 6A): kills; cell killing (colony formation) (HCT116 cells [3]; HCT116, compound alone, compared with MCF10A, FIG. 6A): more effective at killing
Cc1c(Br)cc(NCC(=O)N/N=C\c2cc([N+](=O)[O-])ccc2O)cc1Br [Compound 67]	3	no significant effect	1.4	4	4	effect on ionizing radiation-induced cytotoxicity (MCF10A cells [2]; 2 gray): no significant effect; potentiation of killing by ionizing radiation (HCT116 cells [3]; colonies after two weeks): potentiates; IC50 ratios of non- and 3-AB treated cells HCT116 (HCT116 cells [4]): 1
O=c1[nH]ncc(N/N=C\c2ccc(O)c([N+](=O)[O-])c2)c1Cl [Compound 82]	3					inhibition of step 3 of the ligation reaction ([1]; 100 μM, FIG. 3C): inhibit step 3
O=C(c1ccc(O)cc1)c1ccccc1O [Compound 200]			ID (1)	~5	10 to 150	IC50 ratios of non- and 3-AB treated cells HCT116 (HCT116 cells [4]): ID (1)
O=C1Nc2ccccc2Oc2cc([N+](=O)[O-])cc([N+](=O)[O-])c21 [Compound 180]				3	3	
O=C(Cn1cnc([N+](=O)[O-])n1)N/N=C/c1ccc(O)cc1O [Compound 151]		no significant effect	1.7	6	6	potentiation of killing by MMS (HCT116 cells [3]; HCT116, MMS 50 μM, colonies after two weeks): markedly potentiates; Radiosensitizers: IC50 ratios HCT116 (HCT116 cells [4]; ionizing radiation): 2
O=C(O)CSc1cc(Cl)c2nonc2c1[N+](=O)[O-] [Compound 64]			2**	50	50	potentiation of the growth inhibitory effect of 3 aminobenzamide (MCF10A cells [5]; MCF10A cells, 3 aminobenzamide 2 mM, 5 days, MTT, FIG. 5B): markedly potentiates
